The values below come from patent publication US12590099B2, “Inhibitors of histone deacetylase useful for the treatment or prevention of HIV infection” (Merck Sharp & Dohme LLC, priority 2018, dated 2026).

Bounds are passed on as bounds.

The target in one assay is T1, HDAC6 (Homo sapiens, UniProt Q9UBN7).
T1 sequence (Q9UBN7 1-1215): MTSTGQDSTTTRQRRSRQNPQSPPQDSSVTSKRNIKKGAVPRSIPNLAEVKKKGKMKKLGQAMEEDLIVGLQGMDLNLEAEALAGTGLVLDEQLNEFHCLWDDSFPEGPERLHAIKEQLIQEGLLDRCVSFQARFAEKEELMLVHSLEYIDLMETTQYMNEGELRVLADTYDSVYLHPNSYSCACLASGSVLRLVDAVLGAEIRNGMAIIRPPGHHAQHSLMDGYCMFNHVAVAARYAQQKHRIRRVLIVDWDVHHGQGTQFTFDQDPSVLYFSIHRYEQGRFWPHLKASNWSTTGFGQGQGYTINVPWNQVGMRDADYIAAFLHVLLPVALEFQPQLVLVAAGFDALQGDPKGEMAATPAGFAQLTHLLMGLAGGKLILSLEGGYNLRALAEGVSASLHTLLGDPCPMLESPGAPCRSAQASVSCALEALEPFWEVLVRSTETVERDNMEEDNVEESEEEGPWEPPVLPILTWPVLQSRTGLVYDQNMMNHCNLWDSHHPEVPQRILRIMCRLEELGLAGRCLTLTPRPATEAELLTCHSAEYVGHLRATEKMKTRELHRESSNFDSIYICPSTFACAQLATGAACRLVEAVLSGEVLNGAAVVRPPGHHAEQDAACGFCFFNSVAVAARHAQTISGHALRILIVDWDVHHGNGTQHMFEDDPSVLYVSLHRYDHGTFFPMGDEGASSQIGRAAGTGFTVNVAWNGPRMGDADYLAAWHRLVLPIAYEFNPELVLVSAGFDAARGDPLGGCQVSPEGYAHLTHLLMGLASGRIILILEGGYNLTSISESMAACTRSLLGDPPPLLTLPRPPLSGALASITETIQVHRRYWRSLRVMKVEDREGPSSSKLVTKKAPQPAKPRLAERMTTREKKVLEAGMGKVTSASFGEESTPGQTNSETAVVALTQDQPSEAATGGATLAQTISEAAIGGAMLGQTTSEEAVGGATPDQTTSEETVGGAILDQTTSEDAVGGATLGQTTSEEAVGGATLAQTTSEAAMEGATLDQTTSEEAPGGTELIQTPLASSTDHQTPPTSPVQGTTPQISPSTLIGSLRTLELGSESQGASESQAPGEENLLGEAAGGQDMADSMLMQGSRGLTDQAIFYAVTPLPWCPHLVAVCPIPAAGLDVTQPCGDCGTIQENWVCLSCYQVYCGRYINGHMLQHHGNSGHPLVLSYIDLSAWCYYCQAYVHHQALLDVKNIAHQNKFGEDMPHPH
In words: Human HDAC enzyme inhibitor Fluor-de-Lys assay, HDAC6. The format is biochemical.

The target in the next assay is T2, Recombinant human HDAC8 (Homo sapiens, UniProt Q9BY41).
T2 construct: purchased Enzo Life Sciences BML-SE145-0100
T2 sequence (Q9BY41 1-377): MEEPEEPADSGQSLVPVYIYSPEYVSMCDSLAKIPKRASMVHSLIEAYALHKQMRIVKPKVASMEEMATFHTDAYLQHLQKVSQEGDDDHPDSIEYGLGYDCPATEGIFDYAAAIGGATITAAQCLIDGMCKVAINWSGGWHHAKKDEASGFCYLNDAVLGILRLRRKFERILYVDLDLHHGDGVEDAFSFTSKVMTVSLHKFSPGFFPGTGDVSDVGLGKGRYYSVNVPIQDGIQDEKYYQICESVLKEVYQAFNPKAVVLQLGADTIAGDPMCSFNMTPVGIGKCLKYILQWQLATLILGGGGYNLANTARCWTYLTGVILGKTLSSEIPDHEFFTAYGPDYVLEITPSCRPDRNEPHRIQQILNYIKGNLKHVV
In words: Human HDAC enzyme inhibitor Fluor-de-Lys assay, HDAC8. The format is biochemical.

As usually defined, the IC50 is the midpoint of a concentration-inhibition curve. In the case of `CCC(=O)CCCCC[C@H](NC(=O)C1=NOC2(CCN(CC3CC3)CC2)C1)c1ncc(-c2cc3ccc(C)nc3cc2OC)[nH]1` [Compound 219], the IC50 against HDAC6 and on Recombinant human HDAC8 was more than 0.9 µM throughout.
As for `CCC(=O)CCCCC[C@H](NC(=O)[C@H]1CC[C@]2(CC1)OC(=O)c1ncccc12)c1ncc(-c2ccc3nc(C4CC4)ccc3c2)o1` [Compound 122], the results for the half-maximal inhibitory concentration (IC50) on HDAC6 and on Recombinant human HDAC8 were more than 45 µM and 29.3 µM, respectively.
For `CCC(=O)CCCCC[C@H](NC(=O)C1=NOC2(CCN(C)CC2)C1)c1ncc(-c2ccc3nn(C)cc3c2)[nH]1` [Compound 154], in that order: 18.1 µM and 12.1 µM.
In the case of `CCC(=O)CCCCC[C@H](NC(=O)C1CC12CC1CCC(C2)N1C)c1ncc(-c2ccc3ncccc3c2)[nH]1` (single isomer, unassigned) [Compound 166], the half-maximal inhibitory concentration (IC50) at HDAC6 was determined as 0.229 µM; at Recombinant human HDAC8, 5.66 µM.
Take `CCC(=O)CCCCC[C@H](NC(=O)C1=NOC2(CCN(C)CC2)C1)c1ncc(-c2cc3ccccc3nc2OC)[nH]1` [Compound 105]: the concentration for half-maximal inhibition (IC50) on HDAC6 was determined as 1.51 µM; on Recombinant human HDAC8, 2.89 µM.
With `CCC(=O)CCCCC[C@H](N)c1ncc(-c2cc3ccc(C)nc3cc2OC)[nH]1` [Compound 209, (S)-9-amino-9-(5-(7-methoxy-2-methylquinolin-6-yl)-1H-imidazol-2-yl)nonan-3-one], the IC50 against HDAC6 is more than 0.9 µM; on Recombinant human HDAC8, 0.144 µM.
With `CCC(=O)CCCCC[C@H](NC(=O)C1CC2(C1)CN(C)C2)c1ncc(-c2ccc3nn(C)cc3c2)[nH]1` [Compound 147], the results for the IC50 at HDAC6 and on Recombinant human HDAC8 were 3.66 µM and 2.77 µM, respectively.
For `CC(O)C(=O)CCCCC[C@H](NC(=O)[C@H]1CC12CCN(C)CC2)c1nc(-c2ccc(F)cc2)c[nH]1` (stereo partly drawn) [Compound 134, (1S)—N-{(1S)-1-[4-(4-fluorophenyl)-1H-imidazol-2-yl]-8-hydroxy-7-oxononyl}-6-methyl-6-azaspiro[2.5]octane-1-carboxamide], in that order: 1.76 µM and 0.574 µM.
`CCC(=O)CCCCC[C@H](NC(=O)[C@H]1CC12CCN(C)CC2)c1ncc(-c2ccc3nc(N(C)C)ccc3c2)[nH]1` [Compound 66, (1S)—N-[(1S)-1-{5-[2-(dimethylamino)quinolin-6-yl]-1H-imidazol-2-yl}-7-oxononyl]-6-methyl-6-azaspiro[2.5]octane-1-carboxamide]: the half-inhibitory concentration (IC50) against HDAC6 was more than 0.45 µM; on Recombinant human HDAC8, more than 1.5 µM.
Regarding `CCC(=O)CCCCC[C@H](NC(=O)C1=NOC2(CCN(C)CC2)C1)c1ncc(-c2cc3ccc(=O)n(C)c3cc2OC)o1` [Compound 193], the IC50 against HDAC6 and at Recombinant human HDAC8 was more than 0.9 µM each time.
For `C=CCN1CCC2(CC1)C[C@@H]2C(=O)N[C@@H](CCCCCC(=O)CC)c1ncc(-c2cccc3c2C2CCC3N2CC=C)[nH]1` (stereo partly drawn) [Compound 180, (1S)—N-{(1S)-7-oxo-1-[5-(9-prop-2-en-1-yl-1,2,3,4-tetrahydro-1,4-epiminonaphthalen-5-yl)-1H-imidazol-2-yl]nonyl}-6-prop-2-en-1-yl-6-azaspiro[2.5]octane-1-carboxamide], the figures for the IC50 against HDAC6 and at Recombinant human HDAC8 were 2.12 µM and 0.27 µM, respectively.
Regarding `CCC(=O)CCCCC[C@H](NC(=O)[C@H]1CC12CCN(C)CC2)c1ncc(-c2cc3ccccc3nc2OC)o1` [Compound 125], the IC50 at HDAC6 turned out to be 0.254 µM; on Recombinant human HDAC8, 23.4 µM.
With `CCC(=O)CCCCC[C@H](NC(=O)[C@H]1CC12CCN(C)CC2)c1nnc(-c2cc3ccc(C)nc3cc2OC)o1` [Compound 191], the 50% inhibitory concentration (IC50) against HDAC6 came out at 2.05 µM; on Recombinant human HDAC8 it was 43.2 µM.
On the same counts, the results for `CCC(=O)CCCCC[C@H](NC(=O)[C@H]1CC12CCN(CC1CC1)CC2)c1ncc(-c2cc3ccc(=O)n(C)c3cc2OC)o1` [Compound 199] are 0.216 µM and 0.3 µM.
For `CCN1CCC2(CC1)C[C@@H]2C(=O)N[C@@H](CCCCCC(=O)CC1CC1)c1ncc(-c2cc3ccc(C)nc3cc2OC)o1` [Compound 167], the results for the 50% inhibitory concentration (IC50) against HDAC6 and on Recombinant human HDAC8 were 3.32 µM and 8.27 µM, respectively.
Take `CCC(=O)CCCCC[C@H](NC(=O)C1CN(C)C1)c1ncc(-c2ccc3c(c2)C2CCC3C2)[nH]1` (stereo partly drawn) [Compound 73, 1-methyl-N-{(1S)-7-oxo-1-[5-(1,2,3,4-tetrahydro-1,4-methanonaphthalen-6-yl)-1H-imidazol-2-yl]nonyl}azetidine-3-carboxamide]: the figures for the IC50 against HDAC6 and on Recombinant human HDAC8 were 6.51 µM and 3.07 µM, respectively.
Turning to `CCC(=O)CCCCC[C@H](NC(=O)[C@H]1CC12CCN(C(C)C)CC2)c1ncc(-c2ccc3nc(C4CC4)ccc3c2)o1` [Compound 116], the half-inhibitory concentration (IC50) at HDAC6 was 4.73 µM; at Recombinant human HDAC8 it was more than 15 µM.
For `CCC(=O)CCCCC[C@H](NC(=O)C1=NOC2(CCN(C)CC2)C1)c1ncc(-c2cc3ccncc3nc2OC)o1` [Compound 216], in that order: 0.786 µM and more than 0.9 µM.
Take `CCC(=O)CCCCC[C@H](NCCN(C)C)c1ncc(-c2cc3ccc(C)nc3cc2OC)[nH]1` [Compound 217, (9S)-9-{[2-(dimethylamino)ethyl]amino}-9-[5-(7-methoxy-2-methylquinolin-6-yl)-1H-imidazol-2-yl]nonan-3-one]: the IC50 against HDAC6 and on Recombinant human HDAC8 was more than 0.9 µM each time.
For `CCC(=O)CCCCC[C@H](NC(=O)[C@H]1CC12CCN(CC)CC2)c1ncc(-c2ccc3c(cnn3C3CC3)c2)[nH]1` [Compound 159], the IC50 on HDAC6 came to 2.95 µM; on Recombinant human HDAC8 it was 4.62 µM.
For `CCC(=O)CCCCC[C@H](NC(=O)C1CC12CCN(C)C(C)(C)C2)c1ncc(-c2ccc3nc(C)ccc3c2)[nH]1` (single isomer, unassigned) [Compound 130], in that order: 2.12 µM and 6 µM.
For `CCC(=O)CCCCC[C@H](NC(=O)C1=NOC2(CCN(C)CC2)C1)c1ncc(-c2ccc3nc(C4CC4)ccc3c2)o1` [Compound 135], in that order: more than 15 µM and 18.3 µM.
As to `CCC(=O)CCCCC[C@H](NC(=O)[C@H]1CC12CCN(C)CC2)c1ncc(-c2ccc3oc(=O)ccc3c2)[nH]1` [Compound 138], the figures for the IC50 on HDAC6 and on Recombinant human HDAC8 were 1.47 µM and 10.1 µM, respectively.
Turning to `CCC(=O)CCCCC[C@H](NC(=O)C1=NOC2(CCN(CC)CC2)C1)c1ncc(-c2cc3ccc(C)nc3cc2OC)o1` [Compound 204], the 50% inhibitory concentration (IC50) at HDAC6 is 0.592 µM; at Recombinant human HDAC8, more than 0.9 µM.
For the compound `CCC(=O)CCCCC[C@H](NC(=O)[C@H]1CC12CCN(CC1CC1)CC2)c1ncc(-c2ccc3nc(C4CC4)ccc3c2)o1` [Compound 115], the values for the IC50 at HDAC6 and at Recombinant human HDAC8 were 4.29 µM and 15.4 µM, respectively.
For `CCC(=O)CCCCC[C@H](NC(=O)[C@H]1CC12CCN(C)CC2)c1[nH]c(-c2ccc(F)cc2)nc1C#N` [Compound 76], in that order: 26.6 µM and 16.8 µM.
Turning to `CCC(=O)CCCCC[C@H](NC(=O)C1CN(C)C1)c1[nH]c(-c2ccc(F)cc2)nc1Br` [Compound 65, N-{(1S)-1-[4-bromo-2-(4-fluorophenyl)-1H-imidazol-5-yl]-7-oxononyl}-1-methylazetidine-3-carboxamide], the figures for the IC50 against HDAC6 and on Recombinant human HDAC8 were more than 45 µM and 40 µM, respectively.
